The record followed here is US6967196B1, “Sulfonamide compounds and uses thereof” (Bristol-Myers Squibb Company, priority 1999, dated 2005).

Structures can show the parent of a compound that is named as a salt. Bounds are passed on as bounds.

The test system of one assay is amyloid β production in transfected H4 (human neuroglioma) cells stably expressing APP constructs. Put plainly: In vitro cell-based assay of inhibitors of amyloid β production (ELISA). The note with it: Homo sapiens, 16 h, transfected H4 cells expressing APP, approximately 16 hours incubation, amyloid β in medium by ELISA; read-out: ACTIVITY (IC50, inhibition of amyloid β production). The method, boiled down: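 Transfected H4 cells stably expressing wild-type or variant APP were exposed to compounds (initial screen 10-100 μM) for about 16 h. Secreted Aβ in the medium was quantified by sandwich ELISA (C-terminal-specific monoclonal capture, N-terminal-specific polyclonal detection) against an Aβ standard curve; dose-response runs followed for actives.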
On the technique in general: In an ELISA, binding on a coated surface is turned into a signal by an enzyme label.
Turning to `C[C@H](C(=O)NCc1cccnc1)N(c1cc(Cl)ccc1F)S(=O)(=O)c1ccc(Cl)cc1` [Example 1332], the IC50 is 100 to 500 nM.

Staying with this assay, now noted: Homo sapiens, 16 h, transfected H4 cells stably expressing APP constructs; approximately 16 hours incubation; amyloid β in medium by ELISA; read-out: ACTIVITY (IC50, inhibition of amyloid β production).
Take `CS(=O)(=O)c1ccc(N(Cc2ccccc2OCCCN2CCCCC2)S(=O)(=O)c2ccc(Cl)cc2)cc1` [Example 1094, 4-chloro-N-[4-(methylsulfonyl)phenyl]-N-{2-[3-(1-piperidinyl)propoxy]benzyl}benzenesulfonamide hydrochloride]: the IC50 is above 10000 nM.

On to `C[C@H](COC(=O)N1CCCC1)N(c1cc(Cl)ccc1Cl)S(=O)(=O)c1ccc(Cl)cc1` [Example 1237, 4-Chloro-N-(2,5-dichlorophenyl)-N-[2-[[[pyrrolidin-1-yl]carbonyl]oxy]-R-1-methylethyl]benzenesulfonamide], for which the IC50 was at most 25 nM.

Turning to `CCNS(=O)(=O)CCC[C@@H](C)N(c1cc(Cl)ccc1Cl)S(=O)(=O)c1ccc(Cl)cc1` [Example 1208, 4-chloro-N-[2,5-dichlorophenyl]-N-[4-[(ethylamino)sulfonyl]-1(R)-methylbutyl]benzenesulfonamide], the IC50 is at most 25 nM.

Still in this assay, the particulars now being: Homo sapiens, 16 h, transfected H4 cells stably expressing APP; approx. 16 h incubation; amyloid β in medium by ELISA; read-out: ACTIVITY (IC50, inhibition of amyloid β production).
As to `CC(c1ccccc1OCCN(C)S(=O)(=O)C(C)C)N(c1cc(F)ccc1F)S(=O)(=O)c1ccc(Cl)cc1` (stereo not drawn) [Example 735, 4-chloro-N-(2,5-difluorophenyl)-N-[1-(2-{2-[(isopropylsulfonyl)(methyl)amino]ethoxy}phenyl)ethyl]benzenesulfonamide], the IC50 lay within 100 to 500 nM.

For the compound `O=[N+]([O-])c1ccc([S+]([O-])CCCOc2ccccc2CN(c2cc(F)ccc2F)S(=O)(=O)c2ccc(Cl)cc2)cc1` (stereo not drawn) [Example 689, 4-chloro-N-(2,5-difluorophenyl)-N-(2-{3-[(4-nitrophenyl)sulfinyl]propoxy}benzyl)benzenesulfonamide], the IC50 fell in the range of 100 to 500 nM.

Still in this assay, the particulars now being: Homo sapiens, 16 h, transfected H4 cells stably expressing APP; approximately 16 hours incubation; amyloid β in medium by ELISA; read-out: ACTIVITY (IC50, inhibition of amyloid β production).
As for `CC(C)CCCN(Cc1ccccc1OCCCN1CCCCC1)S(=O)(=O)c1ccc(Cl)cc1` [Example 951, 4-chloro-N-(4-methylpentyl)-N-{2-[3-(1-piperidinyl)propoxy]benzyl}benzenesulfonamide hydrochloride], the IC50 was above 500 nM.

As for `O=S(=O)(c1ccc(Cl)cc1)N(Cc1ccccc1C#CCCN1CCCCC1)c1ccccc1` [Example 973, 4-chloro-N-phenyl-N-{2-[4-(1-piperidinyl)-1-butynyl]benzyl}benzenesulfonamide], the IC50 was above 500 nM.

On to `O=S(=O)(c1ccc(Cl)cc1)N(Cc1ccccc1OCCCSc1ccccc1)c1cc(F)ccc1F` [Example 982, 4-chloro-N-(2,5-difluorophenyl)-N-{2-[3-(phenylsulfanyl)propoxy]benzyl}benzenesulfonamide], for which the IC50 was above 500 nM.

On to `CS(=O)(=O)c1cccc(N(Cc2ccccc2OCCCN2CCCCC2)S(=O)(=O)c2ccc(Cl)cc2)c1` [Example 1036, 4-chloro-N-[3-(methylsulfonyl)phenyl]-N-{2-[3-(1-piperidinyl)propoxy]benzyl}benzenesulfonamide hydrochloride], for which the IC50 was above 500 nM.

Consider `CCCCOc1ccc(C(=O)N2CCCCC2CCOc2ccccc2CN(c2cc(F)ccc2F)S(=O)(=O)c2ccc(Cl)cc2)cc1` (stereo not drawn) [Example 899, N-(2-{2-[1-(4-butoxybenzoyl)-2-piperidinyl]ethoxy}benzyl)-4-chloro-N-(2,5-difluorophenyl)benzenesulfonamide], for which the IC50 is above 500 nM.

For `O=S(=O)(CCCOc1ccccc1CN(c1cc(F)ccc1F)S(=O)(=O)c1ccc(Cl)cc1)c1ccccc1` [Example 818, 4-chloro-N-(2,5-difluorophenyl)-N-{2-[3-(phenylsulfonyl)propoxy]benzyl}benzenesulfonamide], the IC50 fell in the range of 100 to 500 nM.

The same assay, now with this note: read-out: ACTIVITY (inhibitory concentration IC50, inhibition of amyloid β production).
On to `O=S(=O)(c1ccc(Cl)cc1)N(Cc1cc(F)ccc1OCCCN1CCCCC1)c1cc(F)ccc1F` [Example 231, 4-Chloro-N-(2,5-difluorophenyl)-N-{5-fluoro-2-[3-(1-piperidinyl)propoxy]benzyl}benzenesulfonamide Hydrochloride], for which the IC50 was 25 to 50 nM.

Still in this assay, the particulars now being: transfected H4 cells stably expressing APP constructs; approximately 16 hours incubation; amyloid β in medium by ELISA; read-out: ACTIVITY (IC50, inhibition of amyloid β production).
In the case of `CC[S+]([O-])CCC[C@@H](C)N(c1cc(Cl)ccc1F)S(=O)(=O)c1ccc(Cl)cc1` (stereo partly drawn) [Example 1160, 4-chloro-N-(5-chloro-2-fluorophenyl)-N-[1(R)-methyl-(4-ethylsulfinyl)butyl]benzenesulfonamide], the IC50 was at most 25 nM.

For the compound `C[C@H](CCCNS(C)(=O)=O)N(c1cc(Cl)ccc1F)S(=O)(=O)c1ccc(Cl)cc1` [Example 1100], the IC50 was at most 25 nM.

As to `CC(CCCN)N(c1cc(Cl)ccc1Cl)S(=O)(=O)c1ccc(Cl)cc1` (stereo not drawn) [Example 1152], the IC50 lay within 100 to 500 nM.

On to `COC(=O)C[S+]([O-])CC[C@@H](C)N(c1cc(Cl)ccc1Cl)S(=O)(=O)c1ccc(Cl)cc1` (stereo partly drawn) [Example 1187, methyl(6R)-6-[(2,5-dichlorophenyl)-[(4-chlorophenyl)sulfonyl]-amino]-3-thioheptanoic acid, 3-oxide], for which the IC50 fell in the range of 50 to 100 nM.

The assay is the same for the next values; noted with them: transfected H4 cells stably expressing APP; approx. 16 h incubation; amyloid β in medium by ELISA; read-out: ACTIVITY (IC50, inhibition of amyloid β production).
In the case of “N-{3-[2-(1-{[(4-chlorophenyl)sulfonyl]-2,5-difluoroanilino}ethyl)phenoxy]propyl}-N-methyl-3-nitrobenzamide [Example 737]”, the IC50 lay in the range of 100 to 500 nM.

`CN(CCCOc1ccccc1CN(c1cc(F)ccc1F)S(=O)(=O)c1ccc(Cl)cc1)C(=O)c1ccc(-c2ccccc2)cc1` [Example 752, N-{3-[2-({[(4-chlorophenyl)sulfonyl]-2,5-difluoroanilino}methyl)phenoxy]propyl}-N-methyl[1,1′-biphenyl]-4-carboxamide]: the IC50 was 100 to 500 nM.

In the case of `COC(=O)[C@H](CC(C)C)NC(=O)CCCC[C@@H](C)N(c1cc(Cl)ccc1F)S(=O)(=O)c1ccc(Cl)cc1` [Example 543, (R)-4-Chloro-N-(5-chloro-2-fluorophenyl)-N-[6-[N-(S)-[1-(methoxycarbonyl)-3-methylbutyl]amino]-1-methyl-6-oxohexyl]benzenesulfonamide], the IC50 is 100 to 500 nM.

As to “2-[2-((1R)-1-{[(4-chlorophenyl)sulfonyl]-2,5-difluoroanilino}ethyl)phenyl]ethyl phenylcarbamate [Example 762]”, the IC50 was in the range of 100 to 500 nM.

“N-{3-[2-({[(4-chlorophenyl)sulfonyl]-2,5-difluoroanilino}methyl)phenoxy]propyl}-N-methylbenzamide [Example 800]”: the IC50 is 100 to 500 nM.

On to “N-{3-[2-(1-{[(4-chlorophenyl)sulfonyl]-2,5-difluoroanilino}ethyl)phenoxy]propyl}-2,3,4,5,6-pentafluorobenzamide [Example 742]”, for which the IC50 was 100 to 500 nM.

Staying with this assay, now noted: transfected H4 cells stably expressing APP; approximately 16 hours incubation; amyloid β in medium by ELISA; Table B; read-out: ACTIVITY (IC50, inhibition of amyloid β production).
Turning to “(2E)-N-{4-[2-(1-{[(4-chlorophenyl)sulfonyl]-2,5-difluoroanilino}ethyl)phenoxy]butyl}-N-methyl-2-butenamide [Example 495]”, the IC50 lay in the range of 100 to 500 nM.

For the compound `O=S(=O)(c1ccc(Cl)cc1)N(Cc1ccccc1OCCCN1CCC1)c1ccccc1` [Example 292, N-{2-[3-(1-azetidinyl)propoxy]benzyl}-4-chloro-N-phenylbenzenesulfonamide Hydrochloride], the IC50 fell in the range of 25 to 50 nM.

As to `C[C@@H]1CCC[C@H](C)N1CCCOc1ccccc1CN(c1ccccc1)S(=O)(=O)c1ccc(Cl)cc1` [Example 306, 4-Chloro-N-(2-{3-[(2R,6S)-2,6-dimethylpiperidinyl]propoxy}benzyl)-N-phenylbenzenesulfonamide Hydrochloride], the IC50 lay in the range of 50 to 100 nM.

Turning to `O=S(=O)(c1ccc(Cl)cc1)N(Cc1ccccc1OCCCNC1CC1)c1ccccc1` [Example 297, 4-Chloro-N-{2-[3-(cyclopropylamino)propoxy]benzyl}-N-phenylbenzenesulfonamide Hydrochloride], the IC50 lay within 50 to 100 nM.

Turning to `CN1CCCC1CCOc1ccccc1CN(c1ccccc1)S(=O)(=O)c1ccc(Cl)cc1` (stereo not drawn) [Example 277, 4-Chloro-N-{2-[2-(1-methyl-2-pyrrolidinyl)ethoxy]benzyl}-N-phenylbenzenesulfonamide Hydrochloride], the IC50 fell in the range of 25 to 50 nM.

As for `CC1(O)CCN(CCCOc2ccccc2CN(c2ccccc2)S(=O)(=O)c2ccc(Cl)cc2)CC1` [Example 312, 4-Chloro-N-{2-[3-(4-hydroxy-4-methyl-1-piperidinyl)propoxy]benzyl}-N-phenylbenzenesulfonamide Hydrochloride], the IC50 lay in the range of 50 to 100 nM.

The same assay, now with this note: transfected H4 cells stably expressing APP; approximately 16 hours incubation; amyloid β in medium by ELISA; read-out: ACTIVITY (IC50, inhibition of amyloid β production).
With `C=C(C)CN(Cc1ccccc1OCCCN1CCCCC1)S(=O)(=O)c1ccc(Cl)cc1` [Example 955, 4-chloro-N-(2-methyl-2-propenyl)-N-{2-[3-(1-piperidinyl)propoxy]benzyl}benzenesulfonamide hydrochoride], the IC50 is above 500 nM.

As to “3-bromo-N-{3-[2-(1-{[(4-chlorophenyl)sulfonyl]-2,5-difluoroanilino}ethyl)phenoxy]propyl}benzamide [Example 829]”, the IC50 was in the range of 100 to 500 nM.

Turning to “N-{3-[2-({[(4-chlorophenyl)sulfonyl]-2,5-difluoroanilino}methyl)phenoxy]propyl}-2,4,5-trifluoro-N-methylbenzamide [Example 813]”, the IC50 fell in the range of 100 to 500 nM.

“4-chloro-N-(2,5-difluorophenyl)-N-((1R)-1-{2-[3-(1H-imidazol-1-yl)propoxy]-6-methoxybenzyl}benzenesulfonamide hydrochloride [Example 911]”: the IC50 is above 500 nM.
